Measurements reported in patent US10544130B2, “Metallo-beta-lactamase inhibitors” (priority 2015, dated 2020).
Structures can show the parent of a compound that is named as a salt. Where two headings read alike, the source gives them in different places.

Columns and labels:
[1] = system: Escherichia coli expressing NDM-1 (CLB30005, CLB30016); assay type: cell-based; settings: with imipenem 1 μg/ml, 95% inhibition of bacterial growth
In short: (§1)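 Growth read by absorbance after 22–24 h at 35 °C in CAMHB, with test compound alone or combined with 1 μg/ml imipenem. Inocula came from overnight 35 °C blood-agar colonies, set to a defined OD600 and diluted 1:100. Value is the inhibitor concentration giving synergy.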

[2] = system: Serratia marcescens expressing IMP-1 (CL5741); assay type: cell-based; settings: with imipenem 1 μg/ml, 95% inhibition of bacterial growth
In short: as §1

[3] = system: Pseudomonas aeruginosa PAO1 MB9798 (efflux+, IMP-1); settings: ratio MITC95 PA 9798/MITC95 PA 9799; imipenem at 2 μg/mL
In short: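 Isogenic PAO1 pair (efflux+ MB9798, efflux− MB9799, both IMP-1) tested by microbroth MIC with fixed imipenem and/or ceftazidime, usually at CLSI breakpoint, plus fixed class A/C inhibitor against AmpC. MBL inhibitor titrated; concentration restoring susceptibility recorded and fold difference between strains taken as efflux extent.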

For `CNc1ccc(-c2ccc(S(=O)(=O)N[C@@H]3CCNC3)c(S(N)(=O)=O)c2-c2nn[nH]n2)cn1` [Example 242], the “Escherichia coli (NDM-1) MITC95” value [1] was 0.7813 µM, the “Serratia marcescens (IMP-1) MITC95” value [2] was 0.7813 µM and the Efflux ratio [3] was 1.00.

In the case of `NCC(CO)(CO)NS(=O)(=O)c1ccc(-c2cccc3[nH]c(N)nc23)c(-c2nn[nH]n2)c1S(N)(=O)=O` [Example 247, 4-(2-amino-1H-benzo[d]imidazol-4-yl)-N-1-(1-amino-3-hydroxy-2-(hydroxymethyl)propan-2-yl)-3-(2H-tetrazol-5-yl)benzene-1,2-disulfonamide], the “Escherichia coli (NDM-1) MITC95” value [1] is reported as 0.7813 µM, the “Serratia marcescens (IMP-1) MITC95” value [2] is reported as 1.563 µM and the Efflux ratio [3] is reported as 2.00.

`Nc1nc2c(-c3ccc(S(=O)(=O)NC[C@@]4(N)CCNC4)c(S(N)(=O)=O)c3-c3nn[nH]n3)cccc2[nH]1` [Example 251, (R)-4-(2-amino-1H-benzo[d]imidazol-4-yl)-N1-((3-aminopyrrolidin-3-yl)methyl)-3-(2H-tetrazol-5-yl)benzene-1,2-disulfonamide] was tested, and the “Escherichia coli (NDM-1) MITC95” value [1] was 0.7813 µM, the “Serratia marcescens (IMP-1) MITC95” value [2] was 0.7813 µM and the Efflux ratio [3] was 1.00.

In the case of `NC(=O)c1nc2c(-c3ccc(S(=O)(=O)N[C@@H]4CCNC4)c(S(N)(=O)=O)c3-c3nn[nH]n3)cccc2[nH]1` [Example 271, (R)-4-(4-(N-(pyrrolidin-3-yl)sulfamoyl)-3-sulfamoyl-2-(2H-tetrazol-5-yl)phenyl)-1H-benzo[d]imidazole-2-carboxamide], the “Escherichia coli (NDM-1) MITC95” value [1] is reported as 1.563 µM, the “Serratia marcescens (IMP-1) MITC95” value [2] is reported as 0.7813 µM and the Efflux ratio [3] is reported as 0.50.

For `NCc1nc2cc(-c3ccc(S(=O)(=O)N[C@@H]4CCNC4)c(S(N)(=O)=O)c3-c3nn[nH]n3)ccc2s1` [Example 275, (R)-4-(2-(aminomethyl)benzo[d]thiazol-5-yl)-N^1-(pyrrolidin-3-yl)-3-(2H-tetrazol-5-yl)benzene-1,2-disulfonamide], the “Escherichia coli (NDM-1) MITC95” value [1] was 0.7813 µM, the “Serratia marcescens (IMP-1) MITC95” value [2] was 0.7813 µM and the Efflux ratio [3] was 1.00.

For `CNc1nc2c(-c3ccc(S(=O)(=O)N[C@@H]4CCNC4)c(S(N)(=O)=O)c3-c3nn[nH]n3)cccc2[nH]1` [Example 280, (R)-4-(2-(methylamino)-1H-benzo[d]imidazol-4-yl)-N1-(pyrrolidin-3-yl)-3-(2H-tetrazol-5-yl)benzene-1,2-disulfonamide], the “Escherichia coli (NDM-1) MITC95” value [1] was 0.7813 µM, the “Serratia marcescens (IMP-1) MITC95” value [2] was 0.7813 µM and the Efflux ratio [3] was 0.50.

For `NS(=O)(=O)c1c(S(=O)(=O)N[C@@H]2CCNC2)ccc(-c2cnc3cc[nH]c3c2)c1-c1nn[nH]n1` [Example 282, (R)-N1-(pyrrolidin-3-yl)-4-(1H-pyrrolo[3,2-b]pyridin-6-yl)-3-(2H-tetrazol-5-yl)benzene-1,2-disulfonamide], the “Escherichia coli (NDM-1) MITC95” value [1] was 0.7813 µM, the “Serratia marcescens (IMP-1) MITC95” value [2] was 0.7813 µM and the Efflux ratio [3] was 1.00.

In the case of `NS(=O)(=O)c1c(S(=O)(=O)N[C@@H]2CCNC2)ccc(-c2cccc3ncccc23)c1-c1nn[nH]n1` [Example 287, (R)-N1-(pyrrolidin-3-yl)-4-(quinolin-5-yl)-3-(2H-tetrazol-5-yl)benzene-1,2-disulfonamide], the “Escherichia coli (NDM-1) MITC95” value [1] is reported as 1.563 µM, the “Serratia marcescens (IMP-1) MITC95” value [2] is reported as 1.563 µM and the Efflux ratio [3] is reported as 1.00.

`CNc1nc2c(-c3ccc(S(=O)(=O)N[C@H]4CCNC4)c(S(N)(=O)=O)c3-c3nn[nH]n3)cccc2[nH]1` [Example 295, (S)-4-(2-(methylamino)-1H-benzo[d]imidazol-4-yl)-N1-(pyrrolidin-3-yl)-3-(2H-tetrazol-5-yl)benzene-1,2-disulfonamide] was tested, and the “Escherichia coli (NDM-1) MITC95” value [1] was 0.7813 µM, the “Serratia marcescens (IMP-1) MITC95” value [2] was 0.7813 µM and the Efflux ratio [3] was 1.00.

In the case of `Cn1c(N)nc2c(-c3ccc(S(=O)(=O)NC[C@H](O)CN)c(S(N)(=O)=O)c3-c3nn[nH]n3)cccc21` [Example 302, (R)-4-(2-amino-1-methyl-1H-benzo[d]imidazol-4-yl)-N1-(3-amino-2-hydroxypropyl)-3-(2H-tetrazol-5-yl)benzene-1,2-disulfonamide], the “Escherichia coli (NDM-1) MITC95” value [1] is reported as 0.7813 µM, the “Serratia marcescens (IMP-1) MITC95” value [2] is reported as 0.7813 µM and the Efflux ratio [3] is reported as 1.00.

With `NCCNS(=O)(=O)c1ccc(-c2cccc3ncccc23)c(-c2nn[nH]n2)c1S(N)(=O)=O` [Example 360, N1-(2-aminoethyl)-4-(quinolin-5-yl)-3-(2H-tetrazol-5-yl)benzene-1,2-disulfonamide] the “Escherichia coli (NDM-1) MITC95” value [1] was 1.563 µM and the “Serratia marcescens (IMP-1) MITC95” value [2] was 1.563 µM.

With `Nc1nc2c(-c3ccc(S(=O)(=O)NCC4(O)CNC4)c(S(N)(=O)=O)c3-c3nn[nH]n3)cccc2s1` [Example 387, 4-(2-amino-1,3-benzothiazol-4-yl)-N^1-[(3-hydroxyazetidin-3-yl)methyl]-3-(2H-tetrazol-5-yl)benzene-1,2-disulfonamide] the “Escherichia coli (NDM-1) MITC95” value [1] was 1.563 µM and the “Serratia marcescens (IMP-1) MITC95” value [2] was 1.563 µM.

With `C[N+](C)(C)CCCNS(=O)(=O)c1ccc(-c2cccc3sc(N)nc23)c(-c2nnn[nH]2)c1S(N)(=O)=O` [Example 392, 3-({[4-(2-amino-1,3-benzothiazol-4-yl)-2-sulfamoyl-3-(1H-tetrazol-5-yl)phenyl]sulfonyl}amino)-N,N,N-trimethylpropan-1-amimum trifluoroacetate] the “Escherichia coli (NDM-1) MITC95” value [1] was 3.125 µM and the “Serratia marcescens (IMP-1) MITC95” value [2] was 3.125 µM.

In the case of `C[C@@H](CN)NS(=O)(=O)c1ccc(-c2ccnc(N)c2)c(-c2nn[nH]n2)c1S(N)(=O)=O` [Example 398, (S)-N^1-(1-aminopropan-2-yl)-4-(2-aminopyridin-4-yl)-3-(2H-tetrazol-5-yl)benzene-1,2-disulfonamide], the “Escherichia coli (NDM-1) MITC95” value [1] is reported as 3.125 µM and the “Serratia marcescens (IMP-1) MITC95” value [2] is reported as 1.563 µM.

`NCC(CN)NS(=O)(=O)c1ccc(-c2cccc3[nH]nnc23)c(-c2nn[nH]n2)c1S(N)(=O)=O` [Example 403, 4-(1H-benzo [d][1,2,3]triazol-4-yl)-N^1-(1,3-diaminopropan-2-yl)-3-(2H-tetrazol-5-yl)benzene-1,2-disulfonamide] was tested, and the “Escherichia coli (NDM-1) MITC95” value [1] was 1.563 µM and the “Serratia marcescens (IMP-1) MITC95” value [2] was 1.563 µM.

`NS(=O)(=O)c1c(S(=O)(=O)N[C@@H]2CNC[C@@H]2O)ccc(-c2cccc3[nH]nnc23)c1-c1nn[nH]n1` [Example 412, 4-(1H-benzo[d][1,2,3]triazol-4-yl)-N^1-((3R,4S)-4-hydroxypyrrolidin-3-yl)-3-(2H-tetrazol-5-yl)benzene-1,2-disulfonamide] was tested, and the “Escherichia coli (NDM-1) MITC95” value [1] was 3.125 µM and the “Serratia marcescens (IMP-1) MITC95” value [2] was 3.125 µM.

In the case of `NCc1sc(N)nc1-c1cccc(-c2ccc(S(=O)(=O)N[C@@H]3CCNC3)c(S(N)(=O)=O)c2-c2nnn[nH]2)c1` [Example 432, (R)-3′-(2-amino-5-(aminomethyl)thiazol-4-yl)-N^4-(pyrrolidin-3-yl)-2-(1H-tetrazol-5-yl)-[1,1′-biphenyl]-3,4-disulfonamide], the “Escherichia coli (NDM-1) MITC95” value [1] is reported as 0.7813 µM and the “Serratia marcescens (IMP-1) MITC95” value [2] is reported as 0.7813 µM.

For `C[C@H](N)Cc1nc2c(-c3ccc(S(N)(=O)=O)c(S(N)(=O)=O)c3-c3nn[nH]n3)cccc2[nH]1` [Example 442, (S)-4-(2-(2-aminopropyl)-1H-benzo[d]imidazol-4-yl)-3-(2H-tetrazol-5-yl)benzene-1,2-disulfonamide], the “Escherichia coli (NDM-1) MITC95” value [1] was 1.563 µM and the “Serratia marcescens (IMP-1) MITC95” value [2] was 1.563 µM.

In the case of `NCCNS(=O)(=O)c1ccc(-c2cccc(NC(=O)[C@H](N)CO)c2)c(-c2nn[nH]n2)c1S(N)(=O)=O` [Example 454, (R)-2-amino-N-(4′-(N-(2-aminoethyl)sulfamoyl)-3′-sulfamoyl-2′-(2H-tetrazol-5-yl)-[1,1′-biphenyl]-3-yl)-3-hydroxypropanamide], the “Escherichia coli (NDM-1) MITC95” value [1] is reported as 1.563 µM and the “Serratia marcescens (IMP-1) MITC95” value [2] is reported as 3.125 µM.

With `NCc1nc2cc(-c3ccc(S(=O)(=O)NC[C@H](O)CN)c(S(N)(=O)=O)c3-c3nn[nH]n3)ccc2s1` [Example 463, (R)—N1-(3-amino-2-hydroxypropyl)-4-(2-(aminomethyl)benzo[d]thiazol-5-yl)-3-(2H-tetrazol-5-yl)benzene-1,2-disulfonamide] the “Escherichia coli (NDM-1) MITC95” value [1] was 0.7813 µM and the “Serratia marcescens (IMP-1) MITC95” value [2] was 0.7813 µM.

With `CNc1nc2c(-c3ccc(S(=O)(=O)NCCN)c(S(N)(=O)=O)c3-c3nn[nH]n3)cccc2[nH]1` [Example 467, N1-(2-aminoethyl)-4-(2-(methylamino)-1H-benzo[d]imidazol-4-yl)-3-(2H-tetrazol-5-yl)benzene-1,2-disulfonamide] the “Escherichia coli (NDM-1) MITC95” value [1] was 0.7813 µM and the “Serratia marcescens (IMP-1) MITC95” value [2] was 0.7813 µM.

`NS(=O)(=O)c1c(S(=O)(=O)N[C@@H]2CCNC2)ccc(-c2cccc(Nc3nc(CO)cs3)c2)c1-c1nn[nH]n1` [Example 470, (R)-3′-((4-(hydroxymethyl)thiazol-2-yl)amino)-N4-(pyrrolidin-3-yl)-2-(2H-tetrazol-5-yl)-[1,1′-biphenyl]-3,4-disulfonamide] was tested, and the “Escherichia coli (NDM-1) MITC95” value [1] was 0.7813 µM and the “Serratia marcescens (IMP-1) MITC95” value [2] was 1.563 µM.

In the case of `Nc1ccc(-c2ccc(S(=O)(=O)NC3CNC3)c(S(N)(=O)=O)c2-c2nn[nH]n2)cn1` [Example 493, 4-(6-aminopyridin-3-yl)-N1-(azetidin-3-yl)-3-(2H-tetrazol-5-yl)benzene-1,2-disulfonamide], the “Escherichia coli (NDM-1) MITC95” value [1] is reported as 0.3906 µM and the “Serratia marcescens (IMP-1) MITC95” value [2] is reported as 0.3906 µM.

With `NCCN1CC[C@@H](NS(=O)(=O)c2ccc(-c3ccc(N)nc3)c(-c3nn[nH]n3)c2S(N)(=O)=O)C1` [Example 500, (R)—N1-(1-(2-aminoethyl)pyrrolidin-3-yl)-4-(6-aminopyridin-3-yl)-3-(2H-tetrazol-5-yl)benzene-1,2-disulfonamide] the “Escherichia coli (NDM-1) MITC95” value ([1]; CLB30016) was 1.563 µM and the “Serratia marcescens (IMP-1) MITC95” value ([2]; CL5741) was 1.563 µM.
